Measured values reported in PMC3237458, “PEGylation Potentiates the Effectiveness of an Antagonistic Peptide That Targets the EphB4 Receptor with Nanomolar Affinity” (PLoS ONE, 2011).
“Also recorded” adds a separate entry of the source. Square brackets hold non-standard residues; d marks the D form. Peptide text beside a SMILES is read from it. * marks the point of attachment. Biotin = O=C1N[C@H]2[C@H](CS[C@H]2CCCCC(=O)*)N1; Ahx = NCCCCCC(=O)O

Tests used:
[1] = target: T1, EphB4-ephrin-B2 binding (Mus musculus, UniProt P54761); experiment: ELISA inhibition of EphB4-ephrin-B2 binding (ephrin-B2 AP on immobilized EphB4 Fc); conditions: incubated in conditioned medium for 4 hours before ELISA; Figure 1C
T1 construct: EphB4 Fc, a soluble dimeric form of the EphB4 extracellular domain fused to Fc; purchased R&D Systems, Minneapolis, MN (EphB4 Fc); ephrin-B2 AP made in house from a GeneHunter plasmid; host or cells: HEK 293T cells for ephrin-B2 AP
T1 sequence (P54761 16-539 limits assumed): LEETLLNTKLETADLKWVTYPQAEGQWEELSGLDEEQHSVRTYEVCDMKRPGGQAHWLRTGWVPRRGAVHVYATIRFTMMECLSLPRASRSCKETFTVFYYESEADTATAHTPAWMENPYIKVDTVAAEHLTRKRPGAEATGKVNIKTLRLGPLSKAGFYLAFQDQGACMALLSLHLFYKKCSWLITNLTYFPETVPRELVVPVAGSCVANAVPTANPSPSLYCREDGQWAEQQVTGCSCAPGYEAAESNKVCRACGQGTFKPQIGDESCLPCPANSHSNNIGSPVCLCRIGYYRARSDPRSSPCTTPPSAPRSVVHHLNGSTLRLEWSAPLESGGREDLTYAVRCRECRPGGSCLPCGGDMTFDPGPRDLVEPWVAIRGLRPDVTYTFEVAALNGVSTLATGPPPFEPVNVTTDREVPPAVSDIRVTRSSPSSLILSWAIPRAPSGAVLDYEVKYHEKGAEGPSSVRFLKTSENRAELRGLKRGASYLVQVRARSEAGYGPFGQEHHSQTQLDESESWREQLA
Description: Alkaline phosphatase (AP) fusion proteins were produced by transiently transfecting the mouse EphB4 AP [70] or mouse ephrin-B2 AP plasmids (GeneHunter, Nashville, TN) in HEK 293T cells and growing the cells in serum-free Opti-MEM medium for 2–4 days. If necessary, the culture medium containing the secreted AP protein was concentrated by centrifugation in Amicon 30,000 MW cutoff filters (Millipore, Inc., Temecula, CA). EphB4 and ephrin-B2 AP concentrations were calculated from alkaline phosphatase activity.
EphB4 Fc (1 µg/ml in TBST) was immobilized in protein A-coated plates and incubated for 3 hours with 0.02 nM ephrin-B2 AP in culture medium diluted in TBST in the presence of different concentrations of TNYL-RAW, TNYL-RAW-Fc, TNYL-RAW-streptavidin and PEG-TNYL-RAW. Bound ephrin-B2 AP was quantified by adding pNPP as the substrate and measuring the absorbance at 405 nm. Alkaline phosphatase activity from wells where human Fc (R&D Systems, Minneapolis, MN) was added instead of EphB4 Fc was subtracted as the background. The binding curves were analyzed using non linear regression and the program Prism (GraphPad Software Inc.).

[2] = Peptide stability in cell culture medium / conditioned medium (ELISA of functional peptide); format: in vitro ADME
Description: PC3 prostate cancer cells were grown in RPMI 1640 medium (Mediatech, Inc, Herndon, VA) with 10% fetal bovine serum (FBS) (Hyclone, Logan, UT), penicillin and streptomycin. B16-F10-luc-G5 melanoma cells (Caliper Life Sciences, Hopkinton, MA) were grown in Eagle's MEM with Earle's Balanced Salts (EBSS) (Hyclone, Logan, UT) supplemented with 10% FBS, non essential amino acids (Hyclone, Logan, UT), L-glutamine, sodium pyruvate (Hyclone, Logan, UT), MEM vitamin solution (Life Technologies-Invitrogen), penicillin and streptomycin (Omega Scientific, Tarzana, CA). HUVECs (Cascade Biologics, Portland, OG) were grown in Medium 200 supplemented with low serum growth supplements (Cascade Biologics), 10% FBS, penicillin and streptomycin, and fungizone (Omega Scientific, Tarzana, CA). Rat EMCs were grown in DMEM (Mediatech, Inc, Herndon, VA) supplemented with 10% FBS, penicillin and streptomycin. The different modified forms of TNYL-RAW at a concentration of 25 nM were added to fresh medium or culture medium conditioned by the cells for 1–4 days. The culture medium was collected after different time periods and diluted 1∶10 in ELISA wells. The amount of intact TNYL-RAW peptide remaining was measured by using the ELISA assays described above for measurement of binding affinity. In some experiments, the peptide was incubated at 37°C with PC3 cell conditioned medium collected from the cells in the absence or in the presence of protease inhibitors (10 µg/ml aprotinin, 5 µg/ml pepstatin, 10 µg/ml leupeptin and 0.75 mM or phenylmethylsulfonylfluoride (PMSF)).

[3] = Peptide stability in mouse serum ex vivo; format: in vitro ADME; conditions: 37°C
[4] = Peptide retention in mouse blood circulation; format: in vivo; conditions: 6 nmoles biotinylated TNYL-RAW IV, 3 mice, serum diluted 1:20, ELISA on EphB4 Fc; Figure 1D
Description: 2.1 nmoles TNYL-RAW-Fc, 1.5 nmoles TNYL-RAW-streptavidin and 6 nmoles PEG-TNYL-RAW, diluted in 150 µl sterile PBS, were administered to C57BL/6 mice by intravenous or intraperitoneal injection. Blood was collected from each mouse from the orbital sinus at two time points after injection and by cardiac puncture under Avertin anesthesia at a third time point. These experiments were carried out in accordance with the recommendations in the Guide for the Care and Use of Laboratory Animals of the National Institutes of Health. The protocol was approved by the Institutional Animal Care and Use Committee of the Sanford-Burnham Medical Research Institute (Animal Assurance Number: A-3053-1). After collection, the blood was […], and the serum was stored at −20°C. The different forms of TNYL-RAW in the serum were detected by using the same ELISA assays described above for measurements of binding affinity. The absorbance from wells incubated with mouse serum without TNYL-RAW was subtracted as the background and the concentration of TNYL-RAW in the blood was calculated based on a standard curve generated using serum containing known TNYL-RAW concentrations. The half-life of each peptide was estimated by using non linear regression and the program Prism (GraphPad Software Inc.). The area under the curve (AUC) was expressed as % ID•hours/ml (where ID is the initial dose of peptide injected) and calculated by dividing the AUC value obtained using the program Prism by the amount of injected peptide and multiplying by 100.

[5] = target: EphB4-ephrin-B2 binding; conditions: ELISA assays; read-out: IC50 for inhibition of EphB4-ephrin-B2 binding; cited from earlier work
From the text: An explanation for the discrepancy in the potency of the peptide in biochemical and cell culture assays could be that TNYL-RAW is susceptible to degradation by proteases present in cell culture medium. For example, trypsin-like proteases are l ...

With `CC[C@H](C)[C@H](NC(=O)[C@@H]1CCCN1C(=O)CNC(=O)[C@H](CC(N)=O)NC(=O)[C@@H]1CCCN1C(=O)[C@H](CO)NC(=O)[C@H](Cc1ccccc1)NC(=O)[C@H](CC(C)C)NC(=O)[C@H](Cc1ccc(O)cc1)NC(=O)[C@H](CC(N)=O)NC(=O)[C@@H](N)[C@@H](C)O)C(=O)N[C@@H](C)C(=O)N[C@@H](CCCNC(=N)N)C(=O)N[C@@H](C)C(=O)N[C@@H](Cc1c[nH]c2ccccc12)C(=O)NCCCCCC(=O)N[C@@H](CCCCNC(=O)CCCC[C@@H]1SC[C@@H]2NC(=O)N[C@@H]21)C(N)=O` [TNYL-RAW] (H-TNYLFSPNGPIARAW[Ahx]K(Biotin)-NH2; N-terminus and C-terminus assumed) the “Ability to inhibit ephrin-B2-EphB4 interaction after incubation in PC3 cell conditioned medium” value [1] was “abolished the ability of TNYL-RAW to inhibit ephrin-B2-EphB4 interaction”, the “Peptide loss in culture medium of other cell types” value ([2]; B16 melanoma cells, HUVECs, EMCs (Figure S1), C6 glioma cells and BPH1 prostate epithelial cells (data not shown), biotinylated TNYL-RAW, ELISA) was “Rapid TNYL-RAW loss” and the “Half-life in PC3 cell culture medium” value ([2]; biotinylated TNYL-RAW with PC3 prostate cancer cells grown in the same medium for several days, depends on cell density and time in medium, ELISA capture on EphB4 Fc, streptavidin-HRP, Figure 1A) was “less than an hour to several hours”. The “Half-life with cells in fresh culture medium versus medium used for 3 days” value ([2]; biotinylated TNYL-RAW, PC3 cells, medium freshly replaced before adding peptide, ELISA, Figure 1A) was “had a longer half-life”, the “Peptide loss in PC3 cell conditioned medium with protease inhibitors” value ([2]; conditioned medium without cells, 37°C, aprotinin, leupeptin, pepstatin and PMSF, ELISA, Figure 1B) was “blocked by a mixture of protease inhibitors” and the “Loss in mouse serum ex vivo with protease inhibitors” value ([3]; mouse serum, mixture of protease inhibitors, ELISA, Fig. 1E) was “partially counteracted by a mixture of protease inhibitors”. For the same molecule, the “Stability in mouse serum ex vivo” value ([3]; undiluted mouse serum, functional peptide by ELISA, Figures 1E, 3B) was “rapidly lost”, the “Detection in mouse serum 30 min after intravenous administration” value [4] was “could not be detected; also recorded: undetectable” and the IC50 [5] was about 15 nM.
